Several values for one entry are separate records, joined by “and”; a condition that tells them apart may be missing. Equal entries are not always repeated. Inconclusive results and toxic doses are left out. No stated cut-off is given here; in the data, active means T/C of 150% or more; inactive means T/C below 125%.
Tested on: L1210 leukemia ip in BDF1 mice, survival T/C
Assay: NCI In Vivo Anticancer Drug Screen. Data for tumor model L1210 Leukemia (intraperitoneal) in B6D2F1 (BDF1) mice
Conditions: endpoint: mean survival time, higher = longer survival
Procedure, shortened: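 Transplantable tumor model; survival measured in treated vs vehicle control mice. Value = treated/control.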

[1] = dose: 100.0 mg/kg/injection, schedule: Q01DX001 (ip), vehicle: other
[2] = dose: 100.0 mg/kg/injection, schedule: Q01DX001 (ip), vehicle: carboxymethylcellulose (CMC)
[3] = dose: 200.0 mg/kg/injection, schedule: Q01DX001 (ip), vehicle: carboxymethylcellulose (CMC)
[4] = dose: 400.0 mg/kg/injection, schedule: Q01DX001 (ip), vehicle: carboxymethylcellulose (CMC)
[5] = dose: 200.0 mg/kg/injection, schedule: Q04DX002 (ip), vehicle: saline with Tween-80
[6] = dose: 400.0 mg/kg/injection, schedule: Q04DX002 (ip), vehicle: saline with Tween-80
[7] = dose: 10.0 mg/kg/injection, schedule: Q01DX001 (ip), vehicle: saline
[8] = dose: 20.0 mg/kg/injection, schedule: Q01DX001 (ip), vehicle: saline
[9] = dose: 40.0 mg/kg/injection, schedule: Q01DX001 (ip), vehicle: saline
[10] = dose: 100.0 mg/kg/injection, schedule: Q01DX001 (ip), vehicle: saline
[11] = dose: 200.0 mg/kg/injection, schedule: Q01DX001 (ip), vehicle: saline
[12] = dose: 400.0 mg/kg/injection, schedule: Q01DX001 (ip), vehicle: saline
[13] = dose: 100.0 mg/kg/injection, schedule: Q04DX003 (ip), vehicle: saline

Measured: T/C

Cc1ccccc1N=Cc1ccccc1O.[Co]
inactive: [1] 102 % of control | dose: 200.0 mg/kg/injection, schedule: Q01DX001 (ip), vehicle: other 98 % of control

Ic1sc(I)c(I)c1I
inactive: [2] 95 % of control | [3] 93 % of control | [4] 104 % of control

CC(C)(C)NC(=O)Oc1ccc2ccccc2c1
inactive: dose: 100.0 mg/kg/injection, schedule: Q01DX009 (ip), vehicle: other 96 % of control | dose: 200.0 mg/kg/injection, schedule: Q01DX009 (ip), vehicle: other 102 % of control | dose: 400.0 mg/kg/injection, schedule: Q01DX009 (ip), vehicle: other 100 % of control

O=[N+]([O-])c1ccc(Cn2cnc3c(Cl)ncnc32)cc1
inactive: [1] 90 % of control

CCC12CC3(C(=O)OC)OC1C(O)CN1CCc4c(n3c3cc(OC)ccc43)C12 (stereo unspecified)
inactive: dose: 6.25 mg/kg/injection, schedule: Q04DX002 (ip), vehicle: saline with Tween-80 100 % of control | dose: 12.5 mg/kg/injection, schedule: Q04DX002 (ip), vehicle: saline with Tween-80 107 % of control | dose: 25.0 mg/kg/injection, schedule: Q04DX002 (ip), vehicle: saline with Tween-80 103 % of control | dose: 50.0 mg/kg/injection, schedule: Q04DX002 (ip), vehicle: saline with Tween-80 100 % of control and 86 % of control | [5] 89 % of control | [6] 89 % of control

O=C(Cc1ccccc1)CC(O)(C(F)(F)F)C(F)(F)F
inactive: dose: 100.0 mg/kg/injection, schedule: Q01DX009 (ip), vehicle: saline with Tween-80 110 % of control | dose: 200.0 mg/kg/injection, schedule: Q01DX009 (ip), vehicle: saline with Tween-80 100 % of control

C[N+]1(C)CCOCC1
inactive: [7] 99 % of control | [8] 100 % of control | [9] 96 % of control

COc1ccc(-n2c(=O)c(N=Nc3ccccc3C)c(O)n(-c3ccc(C)cc3)c2=S)cc1
inactive: dose: 100.0 mg/kg/injection, schedule: Q01DX001 (ip), vehicle: Klucel (hydroxypropylcellulose) (HPC) 95 % of control | dose: 200.0 mg/kg/injection, schedule: Q01DX001 (ip), vehicle: Klucel (hydroxypropylcellulose) (HPC) 97 % of control | dose: 400.0 mg/kg/injection, schedule: Q01DX001 (ip), vehicle: Klucel (hydroxypropylcellulose) (HPC) 97 % of control

Cc1ccc(S(=O)(=O)CCN2CCc3ccccc3C2)cc1
inactive: [10] 103 % of control | [11] 100 % of control | [12] 97 % of control

ClCCN(CCCl)CCCN1c2ccccc2Sc2ccccc21
inactive: dose: 6.25 mg/kg/injection, schedule: Q01DX009 (ip), vehicle: saline with Tween-80 109 % of control | dose: 12.5 mg/kg/injection, schedule: Q01DX009 (ip), vehicle: saline with Tween-80 115 % of control | dose: 12.5 mg/kg/injection, schedule: Q04DX003 (ip), vehicle: saline with Tween-80 97 % of control | dose: 16.0 mg/kg/injection, schedule: Q04DX003 (ip), vehicle: saline with Tween-80 114 % of control | dose: 16.0 mg/kg/injection, schedule: Q04DX003 (ip), vehicle: saline 100 % of control | dose: 25.0 mg/kg/injection, schedule: Q04DX003 (ip), vehicle: saline with Tween-80 97 % of control | dose: 26.0 mg/kg/injection, schedule: Q04DX003 (ip), vehicle: saline 107 % of control | dose: 35.0 mg/kg/injection, schedule: Q04DX003 (ip), vehicle: saline with Tween-80 90 % of control | dose: 35.0 mg/kg/injection, schedule: Q04DX003 (ip), vehicle: saline 103 % of control | dose: 50.0 mg/kg/injection, schedule: Q04DX003 (ip), vehicle: saline with Tween-80 121 % of control

CCN1CCC(CCOC)(CN2c3ccccc3Sc3ccc(Cl)cc32)C1 (stereo unspecified)
inactive: [13] 89 % of control

CCCCOP(=O)(OCCCC)SCl
inactive: dose: 100.0 mg/kg/injection, schedule: Q04DX002 (ip), vehicle: saline with Tween-80 95 % of control | [5] 92 % of control

CCOC(=O)c1c[nH]c2ccc(N(CCCl)CCCl)cc12
inactive: dose: 5.0 mg/kg/injection, schedule: Q01DX001 (ip), vehicle: carboxymethylcellulose (CMC) 98 % of control | dose: 10.0 mg/kg/injection, schedule: Q01DX001 (ip), vehicle: carboxymethylcellulose (CMC) 104 % of control | dose: 20.0 mg/kg/injection, schedule: Q01DX001 (oral), vehicle: carboxymethylcellulose (CMC) 98 % of control | dose: 40.0 mg/kg/injection, schedule: Q01DX001 (oral), vehicle: carboxymethylcellulose (CMC) 103 % of control | dose: 80.0 mg/kg/injection, schedule: Q01DX001 (oral), vehicle: carboxymethylcellulose (CMC) 103 % of control | dose: 160.0 mg/kg/injection, schedule: Q01DX001 (oral), vehicle: carboxymethylcellulose (CMC) 107 % of control | dose: 320.0 mg/kg/injection, schedule: Q01DX001 (oral), vehicle: carboxymethylcellulose (CMC) 115 % of control

CCC(C)C(CN)(CCN1CCCCC1)Cc1cccc2ccccc12 (stereo unspecified)
inactive: dose: 12.5 mg/kg/injection, schedule: Q04DX003 (ip), vehicle: saline + alcohol 96 % of control | dose: 25.0 mg/kg/injection, schedule: Q04DX003 (ip), vehicle: saline + alcohol 93 % of control | dose: 50.0 mg/kg/injection, schedule: Q04DX003 (ip), vehicle: saline + alcohol 96 % of control

ONc1ccccn1
inactive: [10] 95 % of control | [11] 95 % of control

CCS(=O)(=O)/C=C/c1cccs1
inactive: dose: 100.0 mg/kg/injection, schedule: Q01DX009 (ip), vehicle: Klucel (hydroxypropylcellulose) (HPC) 104 % of control | dose: 200.0 mg/kg/injection, schedule: Q01DX009 (ip), vehicle: Klucel (hydroxypropylcellulose) (HPC) 100 % of control

NC(Cc1ccccc1)C(=O)O (stereo unspecified)
inactive: dose: 75.0 mg/kg/injection, schedule: Q01DX001 (ip), vehicle: saline with Tween-80 102 % of control | [2] 93 % of control | dose: 100.0 mg/kg/injection, schedule: Q04DX003 (ip), vehicle: Klucel (hydroxypropylcellulose) (HPC) 102 % of control | dose: 150.0 mg/kg/injection, schedule: Q01DX001 (ip), vehicle: saline with Tween-80 102 % of control | [3] 96 % of control | dose: 200.0 mg/kg/injection, schedule: Q04DX003 (ip), vehicle: Klucel (hydroxypropylcellulose) (HPC) 86 % of control | dose: 300.0 mg/kg/injection, schedule: Q01DX001 (ip), vehicle: saline with Tween-80 98 % of control | [4] 93 % of control

Oc1ccc(O)c2c1CNCC2O (stereo unspecified)
inactive: [10] 97 % of control | [11] 104 % of control

O=C(O)CCC(NC(=O)c1ccccc1)C(=O)O (stereo unspecified)
inactive: [13] 100 % of control | dose: 200.0 mg/kg/injection, schedule: Q04DX003 (ip), vehicle: saline 95 % of control | dose: 400.0 mg/kg/injection, schedule: Q04DX003 (ip), vehicle: saline 95 % of control

CCOC(=O)C(I)CC (stereo unspecified)
inactive: dose: 25.0 mg/kg/injection, schedule: Q01DX009 (ip), vehicle: water 107 % of control | dose: 50.0 mg/kg/injection, schedule: Q01DX009 (ip), vehicle: water 93 % of control | dose: 100.0 mg/kg/injection, schedule: Q01DX009 (ip), vehicle: water 87 % of control

COC(=O)CCC(C)C1CCC2C3CCC4CC(OC(=O)c5ccccc5)CCC4(C)C3CC(=O)C12C (stereo unspecified)
inactive: dose: 100.0 mg/kg/injection, schedule: Q01DX001 (sc), vehicle: steriod suspending solution 102 % of control | dose: 100.0 mg/kg/injection, schedule: Q01DX009 (sc), vehicle: steriod suspending solution 93 % of control | dose: 200.0 mg/kg/injection, schedule: Q01DX001 (sc), vehicle: steriod suspending solution 106 % of control | dose: 200.0 mg/kg/injection, schedule: Q01DX009 (sc), vehicle: steriod suspending solution 98 % of control | dose: 400.0 mg/kg/injection, schedule: Q01DX001 (sc), vehicle: steriod suspending solution 104 % of control | dose: 400.0 mg/kg/injection, schedule: Q01DX009 (sc), vehicle: steriod suspending solution 99 % of control

CC1(C)OC(=O)CC1c1ccccc1 (stereo unspecified)
inactive: dose: 5.0 mg/kg/injection, schedule: Q01DX001 (ip), vehicle: saline 108 % of control | [7] 101 % of control | [8] 86 % of control | [9] 97 % of control | dose: 80.0 mg/kg/injection, schedule: Q01DX001 (ip), vehicle: saline 101 % of control | [10] 102 % of control | [12] 95 % of control

C[Si](C)(C)c1ccc(-c2ccccc2)cc1
inactive: dose: 25.6 mg/kg/injection, schedule: Q04DX002 (ip), vehicle: saline with Tween-80 90 % of control | dose: 64.0 mg/kg/injection, schedule: Q04DX002 (ip), vehicle: saline with Tween-80 90 % of control | dose: 160.0 mg/kg/injection, schedule: Q04DX002 (ip), vehicle: saline with Tween-80 97 % of control | [6] 101 % of control

Source: PubChem BioAssay AID248 (DTP/NCI, 2004)
